Measurements published in patent US12297476B2, “Metallic nanoparticles and methods of making and using the same” (Saint Joseph's University, priority 2020, dated 2025).

Tested on: Medicago sativa cells
Details: 200 ppm (highest concentration), after two weeks of continuous growth in liquid medium
Method: To determine the IC50 of KAuCl4, the filter sterilized stock solution of KAuCl4 (prepared in deionized water) was added at different concentrations (10-200 ppm) to 20 mL culture having a cell density of 20,000 cells/mL and incubated on the shaker for 2 weeks. Culture aliquots (1 mL) were collected at an interval of 48 h, spun at 2000 rpm for 10 min, stained with phosphate buffered Trypan Blue, and dead cells were counted using a haemocytometer. Percentage of cell death was determined from the total cell number.

For `[Cl][Au-]([Cl])([Cl])[Cl].[K+]` [KAuCl4, potassium gold chloride], the “cells eliminated from the culture (cell death)” value was 25%.
